Assay results published in patent publication US5716963A, “Anthraquinonic derivatives having an antitumor activity and applications thereof” (Universidad Complutense De Madrid, priority 1994, dated 1998).
Values after ≈ are worked out from the molar mass of the structure shown.

Legend:
P-388 = assay: IC50 growth inhibition, P-388 suspension culture; assay type: cell-based, DBA/2 mouse; details: Mus musculus, P388, 72 h, three days, 37° C., 10% CO2, approximate IC50, in duplicate
Experimental: (§1) Cell cultures: The cells were kept in logarithmic phase of growth in Eagle's Minimum Essential Medium, with Earle's Balanced Salts, with L-gluatamine 2.0 mM, with non-essential amino acids and without sodium bicarbonate (EMEM-NEAA); supplemented with Fetal Calf Serum (FCS) 10% sodium bicarbonate 10^-2 and with 0.1 g/l penicillin-G+-streptomycin sulfate.
(§2) To determine and to compare the antitumor activity of these compounds, a simple screening process was carried out using an adapted form of the method described by Bergeron et al. (1984) ((1) Raymond J. Bergeron, Paul F. Cavanaugh, Jr., Steven J. Kline, Robert G. Hughes, Jr., Gary T. Elliot and Carl W. Porter. Antineoplastic and antiherpetic activity of spermidine catecholamide iron chelators. Biochem. Bioph. Res. Comm. 1984, 121 (3), 848-854; (2) Alan C. Schroeder, Robert G. Hughes, Jr. and Alexander Bloch. Effects of Acyclic pyrimidine nucleoside analogues. J. Med. Chem. 1981, 24, 1078-1083). The antitumor cells used have been P-388 (culture in DBA/2 mouse lymphoid neoplasm suspension), A-549 (human lung carcinoma monolayer culture); HT-29 human colon carcinoma monolayer culture) and MEL (human melanoma monolayer culture).
The P-388 cells were seeded in 16 mm cups at 1×10^4 cells per cup in aliquots at 1 ml. MEM 5FCS that contains the indicated drug concentration. Separately, a batch of cultures without any drug was seeded as a growth control to ensure that the cells were kept in a logarithmic phase of growth. All the determinations were carried out in duplicate. After three days of incubation at 37° C., 10% CO2 in an atmosphere with 98% humidity, the approximate IC50 was determined by comparing the growth in the cups with the drug and the control cups.

A-549 = assay: IC50 growth inhibition, A-549 monolayer culture (crystal violet); assay type: cell-based; details: Homo sapiens, A549, 72 h, three days, 37° C., 10% CO2, crystal violet 0.1%, approximate IC50, in duplicate
Experimental: as §1, §2
(§3) The A-549, HT-29 and MEL-28 cells were seeded in 16 mm cups at […] cells per cup in aliquots of […] of MEM 10FCS that contain the indicated drug concentration. Separately, a batch of cultures without any drug was seeded as a growth control to ensure that the cells were kept in a logarithmic phase of growth. All the determinations were carried out in duplicate. After three days of incubation at 37° C., 10% CO2 in an atmosphere with 98% humidity, the cups were stained with crystal violet 0.1%. The approximate IC50 was determined by comparing the growth in the cups with the drug and the growth in the control cups.

HT-29 = assay: IC50 growth inhibition, HT-29 monolayer culture (crystal violet); assay type: cell-based; details: Homo sapiens, 72 h, three days, 37° C., 10% CO2, crystal violet 0.1%, approximate IC50, in duplicate
Experimental: as §1, §2, §3

MEL-28 = assay: IC50 growth inhibition, MEL-28 monolayer culture (crystal violet); assay type: cell-based; details: Homo sapiens, SK-MEL-28, 72 h, three days, 37° C., 10% CO2, crystal violet 0.1%, approximate IC50, in duplicate
Experimental: as §1, §2, §3

Gram positive bacteria = details: cited from earlier work
thymidilate synthetase = details: cited from earlier work

Row | SMILES | IC50 (P-388) | IC50 (A-549) | IC50 (HT-29) | IC50 (MEL-28) | activity against Gram positive bacteria (Gram positive bacteria) | capacity to inhibit thymidilate synthetase (thymidilate synthetase)
1 | CC1=C(C)CC2C(=O)c3c(C)cc(=O)[nH]c3C(=O)C2C1 (stereo not shown) [(I-a), 4,6,7-trimethyl-5,8,8a,10a-tetrahydro-1H-1-azaathracen-2,9,10-trione] | 1 µg/mL (≈ 3.69 µM) | 0.25 µg/mL (≈ 0.921 µM) | 1 µg/mL (≈ 3.69 µM) |  |  | 
2 | CCOc1nc2c(cc1C)C(=O)c1ccccc1C2=O [(I-b), 2-ethoxy-3-methyl-1-azaanthracen-9,10-dione] | 5 µg/mL (≈ 18.7 µM) | 0.25 µg/mL (≈ 0.935 µM) | 10 µg/mL (≈ 37.4 µM) | 5 µg/mL (≈ 18.7 µM) |  | 
3 | CCc1cc2c([nH]c1=O)C(=O)c1[nH]c(=O)cc(C)c1C2=O [(I-c)] | 0.1 µg/mL (≈ 0.352 µM) | 0.025 µg/mL (≈ 0.0879 µM) | 0.1 µg/mL (≈ 0.352 µM) | 0.1 µg/mL (≈ 0.352 µM) |  | 
4 | CC(=O)c1cc2c([nH]c1=O)C(=O)c1ncc(C)cc1C2=O [(I-d)] | 1 µg/mL (≈ 3.54 µM) | 0.25 µg/mL (≈ 0.886 µM) | 1 µg/mL (≈ 3.54 µM) | 0.25 µg/mL (≈ 0.886 µM) |  | 
5 | Cc1cc(=O)[nH]c2c1C(=O)c1cc(F)cnc1C2=O [(I-e), 6-fluoro-4-methyl-1H,1,8-diazaanthracen-2,9,10-trione] | 0.005 µg/mL (≈ 0.0194 µM) | 0.02 µg/mL (≈ 0.0775 µM) | 0.05 µg/mL (≈ 0.194 µM) | 0.05 µg/mL (≈ 0.194 µM) |  | 
6 | Cc1cc(=O)[nH]c2c1C(=O)c1cc(N(C)C)cnc1C2=O [(I-f), 6-dimethylamino-4-methyl-1H-1,8-diazaanthracen-2,9,10-trione] | 0.02 µg/mL (≈ 0.0706 µM) | 0.02 µg/mL (≈ 0.0706 µM) | 0.02 µg/mL (≈ 0.0706 µM) | 0.02 µg/mL (≈ 0.0706 µM) |  | 
7 | Cc1cc(=O)[nH]c2c1C(=O)C1=C(NC=CC1c1ccccc1[N+](=O)[O-])C2=O (stereo not shown) [(I-g), 4-methyl-5-(2-nitrophenyl)-5,8-dihydro-1H-1,8-diazaanthracen-2,9,10-trione] | 0.5 µg/mL (≈ 1.38 µM) | 0.05 µg/mL (≈ 0.138 µM) | 0.05 µg/mL (≈ 0.138 µM) | 0.1 µg/mL (≈ 0.275 µM) |  | 
8 | Cc1cc(=O)[nH]c2c1C(=O)c1cc(C)c(=O)[nH]c1C2=O [(I-h), 3,5-dimethyl-1,8-dihydro-1,8-diazaanthracen-2,7,9,10-tetraone] | 0.05 µg/mL (≈ 0.185 µM) | 0.05 µg/mL (≈ 0.185 µM) | 0.05 µg/mL (≈ 0.185 µM) | 0.025 µg/mL (≈ 0.0925 µM) |  | 
9 | O=C1c2cc(F)cnc2C(=O)c2ncc(F)cc21 [(I-i), 3,6-difluoro-1,8-diazaanthracen-9,10-dione] | 0.025 µg/mL (≈ 0.102 µM) | 0.1 µg/mL (≈ 0.406 µM) | 0.1 µg/mL (≈ 0.406 µM) | 0.025 µg/mL (≈ 0.102 µM) |  | 
10 | Cc1cnc2c(c1)C(=O)c1cc(-c3ccccc3)c(=O)[nH]c1C2=O [(I-j), 6-methyl-3-phenyl-1H-1,8-diazaanthracen-2,9,10-trione] | 2.5 µg/mL (≈ 7.9 µM) | 5 µg/mL (≈ 15.8 µM) | 10 µg/mL (≈ 31.6 µM) | > 10 µg/mL |  | 
11 | CC1C(F)=CNC2=C1C(=O)c1ccccc1C2=O (stereo not shown) [(I-k), 3-fluoro-4-methyl-1,4-dihydro-1-azaanthracen-9,10-dione] | 0.25 µg/mL (≈ 1.03 µM) | 0.25 µg/mL (≈ 1.03 µM) | 0.25 µg/mL (≈ 1.03 µM) | 0.12 µg/mL (≈ 0.493 µM) |  | 
12 | O=C1c2ccccc2C(=O)c2ncc(F)cc21 [(I-l), 3-fluoro-1-azaanthracen-9,10-dione] | 0.25 µg/mL (≈ 1.1 µM) | 0.05 µg/mL (≈ 0.22 µM) | 0.25 µg/mL (≈ 1.1 µM) | 0.05 µg/mL (≈ 0.22 µM) |  | 
13 | CCCc1c2c([nH]c(=O)c1C)C(=O)c1[nH]c(=O)c(C)c(CCC)c1C2=O [Diazaquinomycin A] |  |  |  |  | goods activity against Gram positive bacteria | capacity to inhibit thymidilate synthetase
